Assay results as given in patent publication US9850256B2, “Antibacterial basic biaromatic derivatives with aminoalkoxy substitution” (priority 2014, dated 2017).
Converted amounts (≈) assume the structure as drawn.

How the values were obtained:
Assay in all cases: Bacterial growth minimal inhibitory concentration (microdilution, cation-adjusted Mueller-Hinton Broth)
P. aeruginosa ATCC 27853 = assay type: cell-based, Pseudomonas aeruginosa; details: Pseudomonas aeruginosa, ATCC27853; quinolone-sensitive strain
Summary of the method: (§1)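 Broth microdilution in cation-adjusted Mueller-Hinton Broth per CLSI M7-A7; MICs in mg/L. S. aureus A798 is methicillin- and quinolone-resistant, K. pneumoniae T6474 penicillin-, cephalosporin- and quinolone-resistant; E. coli ATCC25922 and P. aeruginosa ATCC 27853 are quinolone-sensitive.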

E. coli ATCC25922 = assay type: cell-based; details: Escherichia coli, ATCC25922; quinolone-sensitive strain
Summary of the method: as §1

S. aureus A798 = assay type: cell-based, Staphylococcus aureus; details: Staphylococcus aureus, A798; multiply-resistant strain (methicillin- and quinolone-resistant)
Summary of the method: as §1

K. pneumoniae T6474 = assay type: cell-based, Klebsiella pneumoniae; details: Klebsiella pneumoniae, T6474; multiply-resistant strain (penicillin-, cephalosporin- and quinolone-resistant)
Summary of the method: as §1

MIC (P. aeruginosa ATCC 27853) [µg/mL] | MIC (E. coli ATCC25922) [µg/mL] | MIC (S. aureus A798) [µg/mL] | MIC (K. pneumoniae T6474) [µg/mL] | Compound
2 (≈ 3.39 µM) | 2 (≈ 3.39 µM) | 1 (≈ 1.7 µM) | 16 (≈ 27.1 µM) | NCCN(CCN)CCOc1cccc(-c2cccc(CNCC[C@H]3CN(c4ccc5c(n4)NC(=O)CO5)C(=O)O3)c2)c1 [Example $155, 6-((S)-5-{2-[(3′-{2-[bis-(2-amino-ethyl)-amino]-ethoxy}-biphenyl-3-ylmethyl)-amino]-ethyl}-2-oxo-oxazolidin-3-yl)-4H-pyrido[3,2-b][1,4]oxazin-3-one]
0.5 (≈ 0.913 µM) | 1 (≈ 1.83 µM) | 1 (≈ 1.83 µM) | 2 (≈ 3.65 µM) | NCCNCCOc1cccc(-c2cccc(CNCC[C@H]3CN(c4ccc5c(n4)NC(=O)CO5)C(=O)O3)c2)n1 [Example $156, 6-{(S)-5-[2-(3-{6-[2-(2-amino-ethylamino)-ethoxy]-pyridin-2-yl}-benzylamino)-ethyl]-2-oxo-oxazolidin-3-yl}-4H-pyrido[3,2-b][1,4]oxazin-3-one]
1 (≈ 1.98 µM) | 4 (≈ 7.91 µM) | 8 (≈ 15.8 µM) | 16 (≈ 31.6 µM) | NCCOc1ccnc(-c2ccnc(CNCC[C@H]3CN(c4ccc5c(n4)NC(=O)CO5)C(=O)O3)c2)c1 [Example $157, 6-[(S)-5-(2-{[4-(2-amino-ethoxy)-[2,4′]bipyridinyl-2′-ylmethyl]-amino}-ethyl)-2-oxo-oxazolidin-3-yl]-4H-pyrido[3,2-b][1,4]oxazin-3-one]
2 (≈ 3.95 µM) | 8 (≈ 15.8 µM) | 4 (≈ 7.9 µM) | 16 (≈ 31.6 µM) | NCCOc1cncc(-c2ccnc(CNCC[C@H]3CN(c4ccc5c(n4)NC(=O)CO5)C(=O)O3)c2)n1 [Example $158, 6-{(S)-5-[2-({4-[6-(2-amino-ethoxy)-pyrazin-2-yl]-pyridin-2-ylmethyl}-amino)-ethyl]-2-oxo-oxazolidin-3-yl}-4H-pyrido[3,2-b][1,4]oxazin-3-one]
4 (≈ 7.91 µM) | 16 (≈ 31.6 µM) | 8 (≈ 15.8 µM) | 8 (≈ 15.8 µM) | NCCOc1cncc(-c2ccnc(CNCC[C@H]3CN(c4ccc5c(n4)NC(=O)CO5)C(=O)O3)c2)c1 [Example $159, 6-[(S)-5-(2-{[5-(2-amino-ethoxy)-[3,4′]bipyridinyl-2′-ylmethyl]-amino}-ethyl)-2-oxo-oxazolidin-3-yl]-4H-pyrido[3,2-b][1,4]oxazin-3-one]
1 (≈ 1.98 µM) | 2 (≈ 3.96 µM) | 4 (≈ 7.91 µM) | 8 (≈ 15.8 µM) | NCCOc1nccc(-c2cccc(CNCC[C@H]3CN(c4ccc5c(n4)NC(=O)CO5)C(=O)O3)c2)n1 [Example $160, 6-[(S)-5-(2-{3-[2-(2-amino-ethoxy)-pyrimidin-4-yl]-benzylamino}-ethyl)-2-oxo-oxazolidin-3-yl]-4H-pyrido[3,2-b][1,4]oxazin-3-one]
1 (≈ 1.87 µM) | 0.5 (≈ 0.935 µM) | 0.5 (≈ 0.935 µM) | 1 (≈ 1.87 µM) | COc1cc(OCCN)cc(-c2cccc(CNCC[C@H]3CN(c4ccc5c(n4)NC(=O)CO5)C(=O)O3)c2)n1 [Example $161, 6-[(S)-5-(2-{3-[4-(2-amino-ethoxy)-6-methoxy-pyridin-2-yl]-benzylamino}-ethyl)-2-oxo-oxazolidin-3-yl]-4H-pyrido[3,2-b][1,4]oxazin-3-one]
1 (≈ 1.87 µM) | 1 (≈ 1.87 µM) | 1 (≈ 1.87 µM) | 1 (≈ 1.87 µM) | COc1cc(OCCN)cc(-c2ccnc(CNCC[C@H]3CN(c4ccc5c(n4)NC(=O)CO5)C(=O)O3)c2)n1 [Example $162, 6-[(S)-5-(2-{[4-(2-amino-ethoxy)-6-methoxy-[2,4′]bipyridinyl-2′-ylmethyl]-amino}-ethyl)-2-oxo-oxazolidin-3-yl]-4H-pyrido[3,2-b][1,4]oxazin-3-one]
0.5 (≈ 0.964 µM) | 0.5 (≈ 0.964 µM) | 0.5 (≈ 0.964 µM) | 2 (≈ 3.86 µM) | CNCCOc1cccc(-c2cccc(CNCC[C@H]3CN(c4ccc5c(n4)NC(=O)CO5)C(=O)O3)c2)n1 [Example $163, 6-[(S)-5-(2-{3-[6-(2-methylamino-ethoxy)-pyridin-2-yl]-benzylamino}-ethyl)-2-oxo-oxazolidin-3-yl]-4H-pyrido[3,2-b][1,4]oxazin-3-one]
0.5 (≈ 0.962 µM) | 1 (≈ 1.92 µM) | 0.5 (≈ 0.962 µM) | 1 (≈ 1.92 µM) | CNCCOc1cncc(-c2cccc(CNCC[C@H]3CN(c4ccc5c(n4)NC(=O)CO5)C(=O)O3)c2)n1 [Example $164, 6-[(S)-5-(2-{3-[6-(2-methylamino-ethoxy)-pyrazin-2-yl]-benzylamino}-ethyl)-2-oxo-oxazolidin-3-yl]-4H-pyrido[3,2-b][1,4]oxazin-3-one]
2 (≈ 3.95 µM) | 4 (≈ 7.9 µM) | 8 (≈ 15.8 µM) | 4 (≈ 7.9 µM) | NCCOc1cccc(-c2ccnc(CNCC[C@H]3CN(c4ccc5c(n4)NC(=O)CO5)C(=O)O3)n2)n1 [Example $165, 6-{(S)-5-[2-({4-[6-(2-amino-ethoxy)-pyridin-2-yl]-pyrimidin-2-ylmethyl}-amino)-ethyl]-2-oxo-oxazolidin-3-yl}-4H-pyrido[3,2-b][1,4]oxazin-3-one]
4 (≈ 7.33 µM) | 2 (≈ 3.67 µM) | 4 (≈ 7.33 µM) | 4 (≈ 7.33 µM) | CN1CC[C@@H](Oc2cnnc(-c3cccc(CNCC[C@H]4CN(c5ccc6c(n5)NC(=O)CO6)C(=O)O4)c3)c2)C1 [Example $166, 6-[(S)-5-(2-{3-[5-((R)-1-methyl-pyrrolidin-3-yloxy)-pyridazin-3-yl]-benzylamino}-ethyl)-2-oxo-oxazolidin-3-yl]-4H-pyrido[3,2-b][1,4]oxazin-3-one]
1 (≈ 1.79 µM) | 1 (≈ 1.79 µM) | 0.25 (≈ 0.447 µM) | 1 (≈ 1.79 µM) | CN1CC[C@H](Oc2cccc(-c3cccc(CNCC[C@H]4CN(c5ccc6c(c5)NC(=O)CS6)C(=O)O4)c3)n2)C1 [Example $167, 6-[(S)-5-(2-{3-[6-((S)-1-methyl-pyrrolidin-3-yloxy)-pyridin-2-yl]-benzylamino}-ethyl)-2-oxo-oxazolidin-3-yl]-4H-benzo[1,4]thiazin-3-one]

Continued, compound first:

Compound | MIC (P. aeruginosa ATCC 27853) [µg/mL] | MIC (E. coli ATCC25922) [µg/mL] | MIC (S. aureus A798) [µg/mL] | MIC (K. pneumoniae T6474) [µg/mL]
CN1CC[C@H](Oc2cncc(-c3cncc(CNCC[C@H]4CN(c5ccc6c(n5)NC(=O)CO6)C(=O)O4)c3)n2)C1 [Example $146, 6-{(S)-5-[2-({5-[6-((S)-1-methyl-pyrrolidin-3-yloxy)-pyrazin-2-yl]-pyridin-3-ylmethyl}-amino)-ethyl]-2-oxo-oxazolidin-3-yl}-4H-pyrido[3,2-b][1,4]oxazin-3-one] | 4 (≈ 7.32 µM) | 2 (≈ 3.66 µM) | 4 (≈ 7.32 µM) | 4 (≈ 7.32 µM)
CN1CC[C@H](Oc2cncc(-c3cc(CNCC[C@H]4CN(c5ccc6c(n5)NC(=O)CO6)C(=O)O4)ccn3)n2)C1 [Example $147, 6-{(S)-5-[2-({2-[6-((S)-1-methyl-pyrrolidin-3-yloxy)-pyrazin-2-yl]-pyridin-4-ylmethyl}-amino)-ethyl]-2-oxo-oxazolidin-3-yl}-4H-pyrido[3,2-b][1,4]oxazin-3-one] | 4 (≈ 7.32 µM) | 1 (≈ 1.83 µM) | 1 (≈ 1.83 µM) | 1 (≈ 1.83 µM)
CN1CC[C@H](Oc2cncc(-c3ccnc(CNCC[C@H]4CN(c5ccc6c(n5)NC(=O)CO6)C(=O)O4)c3)n2)C1 [Example $148, 6-{(S)-5-[2-({4-[6-((S)-1-methyl-pyrrolidin-3-yloxy)-pyrazin-2-yl]-pyridin-2-ylmethyl}-amino)-ethyl]-2-oxo-oxazolidin-3-yl}-4H-pyrido[3,2-b][1,4]oxazin-3-one] | 1 (≈ 1.83 µM) | 1 (≈ 1.83 µM) | 1 (≈ 1.83 µM) | 1 (≈ 1.83 µM)
CN1CC(Oc2cccc(-c3cccc(CNCC[C@@H]4CN(c5ccc6c(c5)NC(=O)CS6)C(=O)O4)c3)n2)C1 [Example $149, 6-[(R)-5-(2-{3-[6-(1-methyl-azetidin-3-yloxy)-pyridin-2-yl]-benzylamino}-ethyl)-2-oxo-oxazolidin-3-yl]-4H-benzo[1,4]thiazin-3-one] | 1 (≈ 1.83 µM) | 0.5 (≈ 0.916 µM) | 0.5 (≈ 0.916 µM) | 1 (≈ 1.83 µM)
CN1CC[C@H](Oc2cccc(-c3cccc(CNCC[C@@H]4CN(c5ccc6c(c5)NC(=O)CS6)C(=O)O4)c3)n2)C1 [Example $150, 6-[(R)-5-(2-{3-[6-((S)-1-methyl-pyrrolidin-3-yloxy)-pyridin-2-yl]-benzylamino}-ethyl)-2-oxo-oxazolidin-3-yl]-4H-benzo[1,4]thiazin-3-one] | 2 (≈ 3.57 µM) | 2 (≈ 3.57 µM) | 2 (≈ 3.57 µM) | 2 (≈ 3.57 µM)
O=C1COc2ccc(N3C[C@@H](CCNCc4cccc(-c5cccc(OC[C@@H]6CCN6)n5)c4)OC3=O)nc2N1 [Example $151, 6-[(R)-5-(2-{3-[6-((S)-1-azetidin-2-ylmethoxy)-pyridin-2-yl]-benzylamino}-ethyl)-2-oxo-oxazolidin-3-yl]-4H-pyrido[3,2-b][1,4]oxazin-3-one] | 1 (≈ 1.88 µM) | 2 (≈ 3.77 µM) | 4 (≈ 7.54 µM) | 2 (≈ 3.77 µM)
O=C1CSc2ccc(N3C[C@@H](CCNCc4cccc(-c5cccc(OC[C@@H]6CCN6)n5)c4)OC3=O)cc2N1 [Example $152, 6-[(R)-5-(2-{3-[6-((S)-1-azetidin-2-ylmethoxy)-pyridin-2-yl]-benzylamino}-ethyl)-2-oxo-oxazolidin-3-yl]-4H-benzo[1,4]thiazin-3-one] | 1 (≈ 1.83 µM) | 2 (≈ 3.67 µM) | 4 (≈ 7.33 µM) | 4 (≈ 7.33 µM)
CN1CC[C@H](Oc2cnnc(-c3cccc(CNCC[C@H]4CN(c5ccc6c(n5)NC(=O)CO6)C(=O)O4)c3)c2)C1 [Example $153, 6-[(S)-5-(2-{3-[5-((S)-1-methyl-pyrrolidin-3-yloxy)-pyridazin-3-yl]-benzylamino}-ethyl)-2-oxo-oxazolidin-3-yl]-4H-pyrido[3,2-b][1,4]oxazin-3-one] | 4 (≈ 7.33 µM) | 2 (≈ 3.67 µM) | 4 (≈ 7.33 µM) | 4 (≈ 7.33 µM)
NCCOc1ccnc(-c2cccc(CNCC[C@H]3CN(c4ccc5c(n4)NC(=O)CO5)C(=O)O3)c2)c1 [Example $154, 6-[(S)-5-(2-{3-[4-(2-amino-ethoxy)-pyridin-2-yl]-benzylamino}-ethyl)-2-oxo-oxazolidin-3-yl]-4H-pyrido[3,2-b][1,4]oxazin-3-one] | 0.5 (≈ 0.991 µM) | 1 (≈ 1.98 µM) | 4 (≈ 7.93 µM) | 4 (≈ 7.93 µM)
